Reference: PubChem BioAssay (NCI)
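Five concentrations, 48 hours, 96-well plates. TGI: total growth inhibition.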

Assays:
Experiment in all cases: NCI tumour cell line growth inhibition, 48 h
MDA-N = test system: MDA-N
HCT-116 colon = test system: HCT-116 colon
RPMI-8226 leukemia = test system: RPMI-8226 leukemia
HOP-62 NSCLC = test system: HOP-62 NSCLC
SK-MEL-5 melanoma = test system: SK-MEL-5 melanoma
CAKI-1 renal = test system: CAKI-1 renal
NCI-H23 lung = test system: NCI-H23 lung
SK-OV-3 ovarian = test system: SK-OV-3 ovarian
NCI/ADR-RES ovarian = test system: NCI/ADR-RES ovarian
ACHN renal = test system: ACHN renal
SW-620 colon = test system: SW-620 colon
LOX IMVI melanoma = test system: LOX IMVI melanoma
HT29 colon = test system: HT29 colon
786-0 renal = test system: 786-0 renal
MALME-3M melanoma = test system: MALME-3M melanoma
T-47D breast = test system: T-47D breast
SF-539 CNS = test system: SF-539 CNS
SR leukemia = test system: SR leukemia
HCT-15 colon = test system: HCT-15 colon
U251 CNS = test system: U251 CNS

| Structure (SMILES) | TGI (MDA-N) | TGI (HCT-116 colon) | TGI (RPMI-8226 leukemia) | TGI (HOP-62 NSCLC) | TGI (SK-MEL-5 melanoma) | TGI (CAKI-1 renal) | TGI (NCI-H23 lung) | TGI (SK-OV-3 ovarian) | TGI (NCI/ADR-RES ovarian) | TGI (ACHN renal) | TGI (SW-620 colon) | TGI (LOX IMVI melanoma) | TGI (HT29 colon) | TGI (786-0 renal) | TGI (MALME-3M melanoma) | TGI (T-47D breast) | TGI (SF-539 CNS) | TGI (SR leukemia) | TGI (HCT-15 colon) | TGI (U251 CNS) |
| --- | --- | --- | --- | --- | --- | --- | --- | --- | --- | --- | --- | --- | --- | --- | --- | --- | --- | --- | --- | --- |
| O=C1NC(=Nc2ccccc2Cl)N/C1=C\c1c(Cl)cccc1Cl | > 100 µM | 67.1 µM | 56.6 µM | > 100 µM | 47.2 µM | > 100 µM | > 100 µM | > 100 µM | 86 µM | > 100 µM | > 100 µM | > 100 µM | > 100 µM | > 100 µM | > 100 µM | 81.1 µM | > 100 µM | 48 µM | > 100 µM | > 100 µM |
| COC(=O)c1ccccc1/C=C1\Cc2ccc3c(c2C1=O)CCC3 | > 100 µM | > 100 µM | > 100 µM | > 100 µM | > 100 µM | > 100 µM | > 100 µM | > 100 µM | > 100 µM | > 100 µM | > 100 µM | > 100 µM | > 100 µM | > 100 µM | > 100 µM | > 100 µM | > 100 µM | > 100 µM | > 100 µM | > 100 µM |
| NC(=S)NN=Cc1ccccc1OCc1cccc(COc2ccccc2C=NNC(N)=S)n1 | > 100 µM | > 93.6 µM | > 100 µM | 35.3 µM | > 100 µM | > 100 µM | > 100 µM | 29.6 µM | > 100 µM | > 100 µM | > 100 µM | > 100 µM | > 100 µM | > 72 µM | > 100 µM | > 100 µM | > 34.6 µM | > 100 µM | > 100 µM | 19.3 µM |
| CC(=O)OC1CCn2c1nc1c2C(=O)C=C(N2CC2)C1=O (stereo not given) | 1.06 µM | 0.781 µM | 1.37 µM | 4.69 µM | 0.305 µM | 0.124 µM | 1.08 µM | 6.15 µM | 1.28 µM | 0.173 µM | 0.146 µM | 0.275 µM | 2.08 µM | 0.557 µM | 0.0872 µM | 2.38 µM | 0.696 µM | 0.346 µM | 1.96 µM | 0.853 µM |
| O=C(CNc1ccc([N+](=O)[O-])cc1)Nn1c(-c2ccccc2)nc2ccccc2c1=O | 13.8 µM | 13 µM | 14.8 µM | 16.5 µM | 2.61 µM | 5.15 µM | 7.13 µM | 14.9 µM | 7.65 µM | 14.6 µM | 5.02 µM | 2.23 µM | 13.6 µM | 6.26 µM | 4.82 µM | 9.63 µM | 6.61 µM | > 37.4 µM | 7.64 µM | 4.47 µM |
| C[Si](C)(C)CCOCN(C(=O)C1=CCC2(CC1)OCCO2)c1ccccc1I | 59.1 µM | 44.8 µM | 52.2 µM | 42.1 µM | > 100 µM | 55.7 µM | 39 µM | 33.4 µM | > 100 µM | 44 µM | 68 µM | > 100 µM | > 100 µM | 39.8 µM | 52.9 µM | > 100 µM | 53.4 µM | > 100 µM | 41.6 µM | > 100 µM |
| Cc1cccc2c(N)c3cccc(C(=O)NCCNCCN)c3nc12 | 58.6 µM | > 42.6 µM | > 90.1 µM | > 46.3 µM | > 58.4 µM | 79.9 µM | 6.21 µM | > 100 µM | > 100 µM | > 100 µM | > 100 µM | 39.9 µM | 91.2 µM | 16.9 µM | 36.2 µM | > 86.1 µM | 22.4 µM | > 100 µM | > 100 µM | > 24.5 µM |
| COC(=O)CSc1cc(Cl)c(C)cc1S(=O)(=O)Nc1n[nH]c(N)n1 | > 10 µM | > 10 µM | > 10 µM | > 10 µM | > 10 µM | > 10 µM | > 10 µM | > 10 µM | > 10 µM | > 10 µM | > 10 µM | > 10 µM | > 10 µM | > 10 µM | > 10 µM | > 10 µM | > 10 µM | > 10 µM | > 10 µM | > 10 µM |
| COc1ccc(NC(=O)CSc2nc(C)nc3c2sc(=S)n3-c2ccccc2)cc1 | > 10 µM | > 10 µM | > 10 µM | > 10 µM | > 10 µM | > 10 µM | > 10 µM | > 10 µM | > 10 µM | > 10 µM | > 10 µM | > 10 µM | > 10 µM | > 10 µM | > 10 µM | > 10 µM | 4.97 µM | > 10 µM | > 10 µM | > 10 µM |
| O=C(Cc1csc2[n+]1C(=O)/C(=C/c1ccc(Cl)cc1)S2)Nc1ccccc1 | > 100 µM | 42.5 µM | > 100 µM | 30.4 µM | 26.6 µM | > 100 µM | 91.3 µM | 99.5 µM | 82.4 µM | 61.6 µM | > 100 µM | 34.4 µM | 76.1 µM | 90.9 µM | 90.6 µM | > 100 µM | 84.2 µM | > 100 µM | 90.6 µM | 32.1 µM |
| O=C(O[C@H](/C=C/c1ccccc1)P1(=O)N(Cc2ccccc2)[C@H]2CCCC[C@@H]2N1Cc1ccccc1)c1ccccc1 | > 100 µM | 17 µM | 17.8 µM | > 100 µM | 4.1 µM | 5.93 µM | 48.3 µM | > 100 µM | > 100 µM | > 100 µM | > 100 µM | 11.6 µM | > 100 µM | > 100 µM | 25.6 µM | 3.86 µM | > 100 µM | > 100 µM | > 100 µM | 88.7 µM |
| COc1ccc(/C(=N/Nc2nc3ccccc3n2Cc2ccccc2)C(=O)O)cc1 | > 100 µM | > 100 µM | 55.8 µM | > 100 µM | 37.6 µM | 45.8 µM | 43.3 µM | 55 µM | 54 µM | > 100 µM | > 100 µM | 35.5 µM | > 100 µM | 42.3 µM | 91.7 µM | 70.7 µM | 85.1 µM | 9.88 µM | > 100 µM | > 100 µM |
